Test results published in patent US5051406A, “Pharmaceutical composition using albumin as a carrier and process for producing the same” (Nippon Hypox Laboratories Incorporated, priority 1987, dated 1991).

Legend:
Type in all cases: in vivo, male rats of Wistar strain
[1] = test system: stomach mucous membrane (ulcer); test: Formation of stomach ulcer by Indometacin-albumin composition; settings: rat, fasted, oral, 20 mg/kg in terms of Indometacin, 7 hours
Description: It is known that while non-steroidal anti-inflammatory agents show a strong anti-inflammatory action to inflammation-affected parts, they cause hemorrhage and ulcer to the digestive system.
The test was conducted according to the method by Okabe et al. (J. Jap. Pharmacol. Vol. 29, 670 (1979)). That is, two groups of male rats of Wistar strain each weighing 180-200 g (one group consisted of 8 such rats) were fasted for about 18 hours. As test samples, there were used suspensions obtained by suspending the Indometacin-albumin composition (Indometacin 3 g albumin 30 g) obtained in Example 23 or 24 (described later) in a 1% carboxymethyl cellulose sodium solution (hereinafter referred to as 1% CMCNa) in an amount of 20 mg/kg in terms of Indometacin. These suspensions were orally administered to the rats at a proportion of 0.5 ml/100 g (rat). As a control sample, a suspension obtained by suspending an Indometacin powder in 1% CMCNa in an amount of 20 mg/kg was administered similarly. After 7 hours from the administration, all the rats were sacrificed under etherization. 8 ml of a 1% aqueous buffered formalin solution was injected into the stomach of each rat. […] Thereafter, the stomach was incised along the greater curvature and the lesioned portions (ulcer portions) generated in the mucous membrane were measured for their major axes (mm) under a stereoscopic microscope. […]

[2] = test system: carragheenin induced plantar edema; test: Anti-inflammatory action, carragheenin induced plantar edema method; settings: rat, oral, 5 mg/kg in terms of Indometacin
Description: The anti-inflammatory action of the Indometacin-albumin composition can also be proven by the following test by carragheenin induced plantar edema method.
A wide-mouthed glass container filled with water was placed on an electronic even balance. Into the water was immersed the sole of the right hind leg of rat up to the borders of the hair, and the resulting weight increase was measured to obtain a volume of the sole.
Three groups of male rats of Wistar strain each weighing 150-180 g (one group consisted of 6 such rats) were fasted for 18 hours and then measured for their sole volumes. These volumes were each taken as a sole volume before administration.
As test samples, there were used two suspensions, i.e. a suspension obtained by suspending the Indometacin-egg albumin composition (Indometacin 3 g / egg albumin 30 g) obtained in Example 24 (described later) in 1% CMCNa in an amount of about 5 mg/kg in terms of Indometacin and a suspension obtained by suspending an Indometacin powder in 1% CMCNa in an amount of 5 mg/kg in terms of Indometacin. These suspensions were orally administered to two sample groups at a proportion of 0.5 ml/100 g (rat). At 30 minutes after the oral administration, 0.1 ml of a physiological saline solution containing 1% of λ-carragheenin was subcutaneously administered to each rat at the sole of right hind leg and, immediately, 5 ml of water was administered orally. In 1, 3 and 5 hours after the administration of the 1% λ-carragheenin solution, the sole volume of each rat was measured. Then, the swelling percent of each individual rat, the average swelling percent of each group and the corresponding inhibition ratio were calculated according to the following formulae.
As a control sample, there was used 1% CMCNa, and it was orally administered to one control group at a proportion of 0.5 ml/100 g (rat). The results were compared with those of the sample-administered groups.
Swelling percent (%)=((B-A).div.A)×100
Inhibition ratio (%)=((C-D).div.C)×100
A: Sole volume before administration
B: Sole volume after administration
C: Average swelling percent of control group
D: Average swelling percent of sample group

[3] = Absorption of nalidixic acid-albumin composition by gastrointestinal tract (oral, rat serum level)
Description: It was made clear from the following test that the nalidixic acid-albumin composition (nalidixic acid content: 8.9%) obtained according to the present invention improves the absorption of nalidixic acid administered after meals.
Male rats of Wistar strain each weighing about 290 g obtained from Sankyo Labo. were used under a satiety condition.
The administration amount was 50 mg/kg in terms of nalidixic acid. A composition was administered in a form of its suspension in 1 ml of water, using an oral sonde. About 0.2 ml of blood was drawn from the eyeground of rat using a capillary (Drummond, 0.1 ml) and then centrifuged to obtain a serum.
The serum was mixed with an equal volume of methanol to deproteinize the serum. The determination for the deproteinized serum was conducted according to high performance liquid chromatography.
Column: ODS-80TM manufactured by TOYO SODA, 4.6 mm×15 cm
Mobile phase: Acetonitrile: 50 mM citric acid solution: 1 M ammonium acetate =35 : 64 : 1
Detection wavelength: 258 nm
Column temperature: Room temperature
The calibration curve was obtained by adding known nalidixic acid to a blank serum and subjecting the mixture to the same procedure as for the sample.

COc1ccc2c(c1)c(CC(=O)O)c(C)n2C(=O)c1ccc(Cl)cc1 [Indometacin powder, Indometacin]
Incidence [1]: 100.0% | Ulcer index (Mean ± S.E.) ([1]; total of major axes (mm) of ulcers): 341.7 ± 49.9 | Swelling percent, 1 hr ([2]; 1 hr after λ-carragheenin): 10.3% | Swelling percent, 3 hr ([2]; 3 hr after λ-carragheenin): 8.4% | Swelling percent, 5 hr ([2]; 5 hr after λ-carragheenin): 8.5% | Inhibition ratio, 1 hr ([2]; vs 1% CMCNa control, 1 hr after λ-carragheenin): 39.4% | Inhibition ratio, 3 hr ([2]; vs 1% CMCNa control, 3 hr after λ-carragheenin): 52.5% | Inhibition ratio, 5 hr ([2]; vs 1% CMCNa control, 5 hr after λ-carragheenin): 60.5%

CCn1cc(C(=O)O)c(=O)c2ccc(C)nc21 [nalidixic acid powder, nalidixic acid]
AUC at 8 h ([3]; 50 mg/kg in terms of nalidixic acid, 0-8 hours, read-out: area below the blood concentration-time curve (AUC) between 0 and 8 hours): 34600 ng·h/mL | Tmax ([3]; 50 mg/kg in terms of nalidixic acid, satiety condition, read-out: time at which blood concentration of nalidixic acid reached the maximum): 3 h | Cmax ([3]; same amount (50 mg/kg), satiety condition, read-out: maximum blood concentration of nalidixic acid (powder, unit printed as μg)): ~7000 ng/mL
